Laboratory results reported in patent EP0440787B1, “COMPOUNDS OF 1,4-BIS(AMINO)BENZO(G)PHTHALAZENE” (CONSEJO SUPERIOR DE INVESTIGACIONES CIENTIFICAS, priority 1989, dated 1990).
Values after ≈ are worked out from the molar mass of the structure shown. Like-named read-outs stand apart in the source and are kept apart here. Marks after values point to notes of the source that are not given here. Starred links: 1 amine or outer side, 2 acyl side, 3 side chain; linkers in the order of their positions; H or OH if unused. Positions of bridges follow the written chain, without caps; N, C: chain ends. Non-standard residues stand in square brackets, D forms with d. Residues, ends and D or L forms follow the SMILES beside them. Chains are numbered I, II in the order given. Actinocin(9to1) = Cc1c2oc3c(C)ccc(C(=O)[*:1])c3nc-2c(C(=O)[*:2])c(N)c1=O; NMeV = CN[C@H](C(=O)O)C(C)C; Sar = CNCC(=O)O

Experiments:
[1] = clinical drugs, from reference (12); cited from earlier work
[2] = test system: HeLa cell lines (from a human uterine cervix carcinoma); assay: Cytostatic and cytocidal activity in vitro, HeLa cell cultures; format: cell-based
Protocol: (§1) The cytostatic and cytocidal activity of BBPh has been evaluated employing HeLa cell lines (from a human uterine cervix carcinoma), ADLD-clon (from a human malignant melanona) and a semicontinuos LMMB cell line (from normal human tonsilar fibroblasts).
(§2) In order to perform both "in vitro" and "in vivo" experiments a concentrated stock solution of BBPh in dimethyl sulfoxide (DMSO) was prepared. From it increasing diluted solutions in McCoy's R5aI grown medium supplemented with 5% human serum, 5% calf serum, 5% fetal bovine serum, 100 IU/mL penicillin, 100 ug/mL streptomycin and 16 ug/mL gentamycin were obtained.
(§3) Serial dilutions of BBPh and the solvent were assayed in cultures seeded 24 hours before on 96-well "Microtiter" plates. The seeding was carried out by depositing 200 µL of cell suspension in growth medium in each well, adjusted to 3 x 10^5/mL HeLa cells, 9 x 10^5/mL ADLD-clon cells or 4 x 10^5/mL LMMB cells.
(§4) The plates with different concentrations of BBPh and control solutions were incubated at 37°C in a humidily saturated air containing 5% CO2.
(§5) Then the plates were fixed and stained to stimate the effects of BBPh under the conditions described by Alvarez (1986) (11) taken Adriamycin as antitumoral compound of reference. […]

[3] = test system: LMMB cell line (from normal human tonsilar fibroblasts); assay: Cytostatic and cytocidal activity in vitro, LMMB normal cell cultures; format: cell-based; details: Fibroblast
Protocol: as §1, §2, §3, §4, §5

[4] = test system: ADLD-clon (from a human malignant melanona); assay: Cytostatic and cytocidal activity in vitro, ADLD-clon cell cultures; format: cell-based
Protocol: as §1, §2, §3, §4, §5

[5] = 50 per 100 lethal dose (LD50) of BBPh and toxicity in mice; format: in vivo; details: DMSO as solvent
[6] = test system: Trichomonas vaginalis (Srain G); assay: microbe, parasite or virus in culture; details: for MCC: read-out: Trichomonacidal activity MCC; for MIC: read-out: Trichomonacidal activity MIC
Protocol: The cultures of the strains of Trichomonas vaginalis (Srain G) used as experimental model were grown in Diamond Medium (TYM) without agar (100.000 organisms/mL). […] Minimal inhibition concentration (MIC) and Minimal cytocidal concentration (MCC) were established in accordance with the definitions proposed by Escario et al. (19).

[7] = test system: T. cruzi; assay: Trypanosomicide activity in vitro in infected NMRI mice blood; format: cell-based, Trypanosoma cruzi; details: 24 h at 4°C; for N° Tryp/mL: controls Cd 298, Ct 247
[8] = test system: Ehrlich ascites cancer cells; assay: In vivo antitumoral activity, subcutaneous transplant of Ehrlich ascites cancer cells in mice; design: species or system swiss mice
Protocol: Five groups of six 2-month male swiss mice weighing 25 grams were disposed. Each animal received a transplant of 10^5 Ehrlich ascites cancer cells by the subcutaneous route in the interscapular region. Fourteen days later, when the tumors were evident and measured more than 3 millimeter in diameter, the animals were submitted to the different treatments.
Group 1 received a first intraperitoneal dose of 300 µL of DMSO followed by equal subcutaneous doses, the next three consecutive days.
Group 2 received a single intraperitoneal dose of 100 µg of BBPh solubilized in 300 µL of DMSO, followed by equal subcutaneous doses the next three consecutive days.
Group 3 received a single intraperitoneal dose of 500 µg of BBPh in 300 µL of DMSO.
Group 4 received a single intraperitoneal dose of 1.000 µg of BBPh in 300 µL of DMSO.
Group 5 received a single subcutaneous dose of 4.000 µg BBPh in an oily solution.

[9] = pKa of BBPh; format: physicochemical
Excerpt: Some anticancer drugs such as mitomycin C and antinomycin D which interact with nucleic acids have shown activity against Trypanosoma cruzi (16). […] Following a similar behaviour the 1,4-bis(buthylamino)benzo[g] phthalazine (BBPh) which is able to form 1,4-bis(buthylamino) benzo[g]phthalazinium cations at physiological PH (PKa of BBPh = 8.6) and is a potential intercalating agent has shown both, antineoplasic and trypanosomicide activities.

[10] = group 5: BBPh in oily solution 1 x 4.0 mg s.c. (160 mg/kg)
[11] = overall dose 40 mg/Kg: single i.p. dose of 1.0 mg in DMSO

For `Cc1c2oc3c(C)ccc(C(=O)N[C@@H]4C(=O)N[C@H](C(C)C)C(=O)N5CCC[C@H]5C(=O)N(C)CC(=O)N(C)[C@@H](C(C)C)C(=O)O[C@@H]4C)c3nc-2c(C(=O)N[C@@H]2C(=O)N[C@H](C(C)C)C(=O)N3CCC[C@H]3C(=O)N(C)CC(=O)N(C)[C@@H](C(C)C)C(=O)O[C@@H]2C)c(N)c1=O` [Actinomicin D] (I: T[dV]P[Sar][NMeV] / II: T[dV]P[Sar][NMeV]; ester I:1-I:C, II:1-II:C; linker I:N-II:N via Actinocin(9to1)), the LD50 [1] is listed as 0.095 mg/kg.

In the case of `COc1cccc2c1C(=O)c1c(O)c3c(c(O)c1C2=O)C[C@@](O)(C(=O)CO)C[C@@H]3O[C@H]1C[C@H](N)[C@H](O)[C@H](C)O1` [Adriamycin, reference compound], the IC50 ([2]; read-out: ID50) is reported as 0.33 µg/mL (≈ 0.607 µM), the IC50 ([3]; read-out: ID50) is reported as 0.07 µg/mL (≈ 0.129 µM) and the IC50 ([4]; read-out: ID50) is reported as 0.33 µg/mL (≈ 0.607 µM).

For `CCCCNc1nnc(NCCCC)c2cc3ccccc3cc12` [BBPh, 1,4-bis(n-butylamino)benzo[g]phthalazine], the toxicity ([5]; i.p., single dose of 20 mg/Kg) was “toxic”, the LD50 ([5]; mouse, in vivo, ip, BBPh) was 12 mg/kg and the MCC [6] was 10 to 25 µg/mL. For the same compound, the MIC [6] was 5 to 10 µg/mL (≈ 15.5 to 31 µM), the “N° Tryp/mL” value ([7]; BBPh 75 µg/mL) was 0 Tryp/mL and the “N° Tryp/mL” value ([7]; BBPh 125 µg/mL) was 0 Tryp/mL. For the same compound, the “N° Tryp/mL” value ([7]; BBPh 250 µg/mL) was 0 Tryp/mL, the “N° Tryp/mL” value ([7]; BBPh 500 µg/mL) was 0 Tryp/mL and the “N° Tryp/mL” value ([7]; BBPh 1000 µg/mL) was 0 Tryp/mL. For the same compound, the parasitemia ([7]; all samples, 1000 to 75 ug/mL) was “negative parasitemia”, the IC50 ([2]; concentration producing death or growth inhibition of 50% of the cells, read-out: ID50 (the source's name)) was 0.67 µg/mL (≈ 2.08 µM) and the IC50 ([3]; LMMB normal cells, concentration producing death or growth inhibition of 50% of the cells, read-out: ID50 (the source's name)) was 1.08 µg/mL (≈ 3.35 µM). For the same compound, the IC50 ([4]; ADLD-clon, concentration producing death or growth inhibition of 50% of the cells, read-out: ID50 (the source's name)) was 0.67 µg/mL (≈ 2.08 µM), the T/S ([8]; group 2: BBPh in DMSO 1 x 0.1 mg i.p. + 3 x 0.1 mg s.c.) was 6/5 and the “SURVIVAL(DAYS) MST” value ([8]; group 2: BBPh in DMSO 1 x 0.1 mg i.p. + 3 x 0.1 mg s.c., DMSO control 59) was 84 days. The “SURVIVAL(DAYS) MST” value [8, 10] was 86 days, the T/S [8, 10] was 5/5 and the Toxic death ([8]; overall dose 16 mg/Kg: 0.1 mg i.p. then similar s.c. doses next three days, DMSO) was 1/6. The “T/C (%)” value ([8]; overall dose 16 mg/Kg: 0.1 mg i.p. then similar s.c. doses next three days, DMSO, active when > 125%) was 142^f %, the “TST” value ([8]; overall dose 16 mg/Kg: 0.1 mg i.p. then similar s.c. doses next three days, DMSO, control 59) was 84 days and the Toxic death ([8]; overall dose 20 mg/Kg: single i.p. dose of 0.5 mg in DMSO) was 4/6. The “T/C (%)” value ([8]; overall dose 20 mg/Kg: single i.p. dose of 0.5 mg in DMSO, active when > 125%) was 161^f %, the “TST” value ([8]; overall dose 20 mg/Kg: single i.p. dose of 0.5 mg in DMSO, control 59) was 96 days and the “T/C (%)” value [8, 11] was “Toxic”. For the same compound, the “TST” value [8, 11] was 1 days, the Toxic death [8, 11] was 6/6 and the pKa [9] was 8.6.

For `COc1cccc2c1C(=O)c1c(O)c3c(c(O)c1C2=O)C[C@@](O)(C(C)=O)C[C@@H]3O[C@H]1C[C@H](N)[C@H](O)[C@H](C)O1` [Daunomycin], the LD50 [1] is given as 9.2 mg/kg.

Compound `Cc1ncc([N+](=O)[O-])n1CCO` [Metronidazole, reference compound] has an MCC [6] of 8 µg/mL and an MIC [6] of 4 to 8 µg/mL (≈ 23.4 to 46.7 µM).

For `CC[C@]1(O)C[C@H]2CN(CCc3c([nH]c4ccccc34)[C@@](C(=O)OC)(c3cc4c(cc3OC)N(C=O)[C@H]3[C@@](O)(C(=O)OC)[C@H](OC(C)=O)[C@]5(CC)C=CCN6CC[C@]43[C@@H]65)C2)C1` [Vincristine], the LD50 [1] is given as 4.5 mg/kg.
